Data on 6 compounds can be found in patent publication US4318847A, “Physiologically active tetrapeptides” (Zaidan Hojin Biseibutsu Kagaku Kenkyu Kai, priority 1979, dated 1982).

One assay deals with T1, papain (Carica papaya, UniProt P00784).
T1 sequence (P00784 134-345): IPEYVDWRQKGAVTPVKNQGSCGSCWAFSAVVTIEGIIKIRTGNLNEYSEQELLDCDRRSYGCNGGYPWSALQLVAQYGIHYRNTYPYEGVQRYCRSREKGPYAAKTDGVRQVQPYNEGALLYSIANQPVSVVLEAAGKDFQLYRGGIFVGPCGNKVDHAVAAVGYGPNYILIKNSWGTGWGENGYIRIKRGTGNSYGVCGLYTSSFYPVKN
To be noted: prior art; cited from earlier work.

The next assay concerns the target pepsin (Homo sapiens, UniProt P0DJD8). Particulars: prior art; cited from earlier work.
Assay [1] addresses T2, leucine aminopeptidase (Leu-AP) (Sus scrofa, UniProt P28839).
T2 construct: purchased Boehringer-Mannheim Co
T2 sequence (P28839 1-519): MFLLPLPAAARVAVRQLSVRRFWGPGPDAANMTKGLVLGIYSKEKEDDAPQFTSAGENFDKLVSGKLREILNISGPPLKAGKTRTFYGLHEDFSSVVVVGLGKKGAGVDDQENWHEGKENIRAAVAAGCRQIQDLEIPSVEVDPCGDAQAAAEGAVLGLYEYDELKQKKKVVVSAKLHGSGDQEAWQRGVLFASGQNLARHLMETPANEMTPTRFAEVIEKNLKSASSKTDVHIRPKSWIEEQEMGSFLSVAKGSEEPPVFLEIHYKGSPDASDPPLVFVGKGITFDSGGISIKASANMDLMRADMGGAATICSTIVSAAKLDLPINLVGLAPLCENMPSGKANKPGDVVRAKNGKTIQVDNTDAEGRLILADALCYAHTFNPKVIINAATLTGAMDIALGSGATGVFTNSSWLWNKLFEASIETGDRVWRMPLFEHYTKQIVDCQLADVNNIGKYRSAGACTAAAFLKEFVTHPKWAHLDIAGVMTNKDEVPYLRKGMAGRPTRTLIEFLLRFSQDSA
The assay can be described thus: Leu-AP (E.C. 3,4,11,1) inhibition assay. In kind it is biochemical. To be noted: Leu-AP (Boehringer-Mannheim), leucyl-β-naphthylamide substrate, pH 7.6, 37° C., 30 minutes; read-out: IC/50 Leu--AP: amount of the peptide to inhibit the intact activity of the target enzyme by 50% (converted). The procedure: For enzyme assay, 0.25 ml of 2 mM […], 0.6 ml of 0.1 M Tris-HCl buffer, pH 7.6, and 0.1 ml of an aqueous solution containing a test compound were mixed and allowed to stand at 37° C. for 3 minutes. After a 20-fold dilution of Leu-AP (Boehringer-Mannheim Co.) in 0.1 M Tris-HCl buffer, pH 7.6 (0.05 ml) was added to the solution, the reaction was performed at 37° C. for 30 minutes. The inhibition percentage was measured as detailed in (1).

Assay [2] deals with glycylhistidyllysine tripeptidylaminopeptidase (Gly-His-Lys-AP). Briefly: Gly-His-Lys-AP inhibition assay. Particulars: enzyme from FM3A cells (mouse mammary tumor), Hanks solution pH 7.2, 37° C., 30 minutes. It counts as biochemical. As for the experimental part: For enzyme assay, 0.25 ml of 0.5 mM glycyl-L-α-histidyl-L-α-lysyl-β-naphthylamide, 0.62 ml of the Hanks solution, pH 7.2, and 0.1 ml of an aqueous solution of a substance to be tested were combined and maintained at 37° C. for 3 minutes. Gly-His-Lys-AP solution (0.03 ml) which was purified from the FM3A cells (a line of culture cells derived from mouse mammary tumor) by the method described in the reference of (4) was added to the solution and incubated at 37° C. for 30 minutes. The inhibition percentage was calculated as shown in (1).
Gly-His-Lys -β-naphthylamide used above was prepared as follows: to a solution containing 1 g of Gly-His-Lys-acetate (Buchem Fine Chemicals Co.) and 3.0 g of sodium bicarbonate in 60 ml of distilled water, 2.13 ml of Z-Cl was added dropwise under cooling with ice and then stirred for 3 hours. The same treatment as detailed above in Experiment 1-(7) was performed to give 605.8 mg of the Z-derivative of the tripeptide. […]

Assay [3] addresses glycylprolylleucine tripeptidylaminopeptidase (Gly-Pro-Leu-AP). The assay can be described thus: Gly-Pro-Leu-AP inhibition assay. In kind it is biochemical. Particulars: enzyme from cell membrane fraction of rat liver, Hanks solution pH 7.2, 37° C., 30 minutes. As for the experimental part:
According to the method of Aoyagi et al. (T. Aoyagi et al: BIOCHIMICA ET BIOPHYSICA ACTA 452, 131-143(1976)), after a reaction mixture consisting of 0.25 ml of 2 mM glycyl-L-α-prolyl-L-α-leucyl-β-naphthylamide (Buchem Fine Chemicals Co.), 0.6 ml of the Hanks solution, pH 7.2, and 0.1 ml of an aqueous test solution was kept at 37° C. for 3 minutes, 0.05 ml of a Gly-Pro-Leu-AP that was purified from the cell membrane fraction of the rat liver was added and the reaction was carried out at 37° C. for 30 minutes. The same procedure as described in (1) was used for calculation of the inhibition percentage.
The Hanks solution listed above was prepared by dissolving 8.0 g sodium chloride, 0.4 g potassium chloride, 0.14 g calcium chloride, 0.10 g magnesium chloride, 0.06 g disodium-monohydrogen phosphate, 0.06 g monopotassium dihydrogen phosphate, 0.10 g magnesium sulfate and 1.0 g glucose in 1 liter of distilled water and adjusting the solution to pH 7.2 with solid sodium bicarbonate (about 350 mg).

The target of the next assay is T3, aminopeptidase A (AP-A) (Homo sapiens, UniProt Q07075).
T3 construct: an AP-A solution which was obtained by ammonium sulfate fractionation according to the method of Nagatsu et al; from tissue
Briefly: AP-A (E.C. 3,4,11,7) inhibition assay. In kind it is biochemical. To be noted: L-α-glutamyl-β-naphthylamide substrate, pH 7.0, 37° C., 30 minutes; read-out: IC/50 AP--A: amount of the peptide to inhibit the intact activity of the target enzyme by 50% (converted). The procedure:
That is, 0.25 ml of 2 mM L-α-glutamyl-β-naphthylamide, 0.54 ml of 0.1 M Tris-HCl buffer, pH 7.0, 0.01 ml of 0.1 M calcium chloride and 0.1 ml of a test sample in water were mixed and kept at 37° C. for 3 minutes. The reaction was initiated by addition of 0.1 ml of an AP-A solution which was obtained by ammonium sulfate fractionation according to the method of Nagatsu et al. After incubation at 37° C. for 30 minutes, 1 ml of 1.0 M acetate buffer, pH 4.2, containing 1.0 mg/ml Garnet GBC (orthoaminoazotoluene diazonium salt) and 10% Tween 20 (Atlas Chemical Co., U.S.A.) was added to the reaction solution and then allowed to stand at room temperature for 15 minutes. The absorbance of the test solution (a) was measured at 530 nm. The control solution without the test sample was used as the blank test (absorbance (b)). The inhibition percentage on aminopeptidase A was calculated as [(b-a)/b]x100.

For a further assay, the target named is T4, trypsin (Bos taurus, UniProt P00760).
T4 construct: gene PRSS1
T4 sequence (P00760 24-246): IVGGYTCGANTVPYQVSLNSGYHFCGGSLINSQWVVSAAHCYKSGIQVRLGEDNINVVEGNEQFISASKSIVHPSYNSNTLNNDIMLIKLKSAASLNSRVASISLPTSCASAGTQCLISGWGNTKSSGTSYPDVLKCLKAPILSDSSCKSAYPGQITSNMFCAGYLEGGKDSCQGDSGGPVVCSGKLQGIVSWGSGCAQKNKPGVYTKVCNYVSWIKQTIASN
To be noted: prior art; cited from earlier work.

In a further assay the target is leucine aminopeptidase (Homo sapiens, UniProt P28838). To be noted: prior art, U.S. Pat. No. 4,029,547; cited from earlier work.
The next assay has as its target aminopeptidase B (Homo sapiens, UniProt Q9H4A4). To be noted: prior art, U.S. Pat. No. 4,029,547; cited from earlier work.
A further assay has as its target aminopeptidase A (Homo sapiens, UniProt Q07075). Particulars: prior art; cited from earlier work.

*1 amine or outer side, *2 acyl side, *3 side chain or, on linkers, in order; H or OH if unused. Where a SMILES comes first, the peptide text is derived from it. [ ]: non-standard residue; d: D form. The star is where a group is joined. Sta = CC(C)C[C@H](N)[C@@H](O)CC(=O)O; Isovaleryl = CC(C)CC(=O)*; CO = O=C([*:1])[*:2]

T3 sequence (Q07075 whole entry): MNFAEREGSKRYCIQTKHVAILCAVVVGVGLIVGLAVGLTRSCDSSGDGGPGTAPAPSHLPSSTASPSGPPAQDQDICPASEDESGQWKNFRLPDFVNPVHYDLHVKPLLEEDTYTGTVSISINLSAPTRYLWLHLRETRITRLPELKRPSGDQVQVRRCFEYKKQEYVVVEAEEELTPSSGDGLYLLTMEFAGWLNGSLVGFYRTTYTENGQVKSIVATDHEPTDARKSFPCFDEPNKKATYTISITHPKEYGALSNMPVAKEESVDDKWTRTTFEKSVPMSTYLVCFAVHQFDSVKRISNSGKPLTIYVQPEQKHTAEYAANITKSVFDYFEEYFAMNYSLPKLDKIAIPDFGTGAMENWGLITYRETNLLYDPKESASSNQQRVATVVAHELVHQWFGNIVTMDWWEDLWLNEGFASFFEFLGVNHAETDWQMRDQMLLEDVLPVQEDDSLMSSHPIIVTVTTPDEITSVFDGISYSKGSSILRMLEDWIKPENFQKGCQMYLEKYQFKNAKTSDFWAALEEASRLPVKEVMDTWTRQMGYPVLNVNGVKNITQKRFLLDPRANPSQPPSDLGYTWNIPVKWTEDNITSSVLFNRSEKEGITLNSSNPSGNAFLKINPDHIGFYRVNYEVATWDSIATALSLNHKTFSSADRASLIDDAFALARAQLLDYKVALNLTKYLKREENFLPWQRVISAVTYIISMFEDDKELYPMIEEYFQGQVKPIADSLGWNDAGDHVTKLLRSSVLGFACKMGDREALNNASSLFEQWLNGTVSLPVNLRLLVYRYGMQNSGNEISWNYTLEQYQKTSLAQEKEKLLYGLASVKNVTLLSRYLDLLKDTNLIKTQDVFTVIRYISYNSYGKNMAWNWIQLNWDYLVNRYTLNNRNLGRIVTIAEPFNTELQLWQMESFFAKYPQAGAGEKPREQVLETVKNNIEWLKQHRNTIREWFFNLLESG
Chain of aminopeptidase A (Q07075 whole entry, species assumed): as the sequence (Q07075 whole entry) above
Chain of aminopeptidase B (Q9H4A4 whole entry, species assumed): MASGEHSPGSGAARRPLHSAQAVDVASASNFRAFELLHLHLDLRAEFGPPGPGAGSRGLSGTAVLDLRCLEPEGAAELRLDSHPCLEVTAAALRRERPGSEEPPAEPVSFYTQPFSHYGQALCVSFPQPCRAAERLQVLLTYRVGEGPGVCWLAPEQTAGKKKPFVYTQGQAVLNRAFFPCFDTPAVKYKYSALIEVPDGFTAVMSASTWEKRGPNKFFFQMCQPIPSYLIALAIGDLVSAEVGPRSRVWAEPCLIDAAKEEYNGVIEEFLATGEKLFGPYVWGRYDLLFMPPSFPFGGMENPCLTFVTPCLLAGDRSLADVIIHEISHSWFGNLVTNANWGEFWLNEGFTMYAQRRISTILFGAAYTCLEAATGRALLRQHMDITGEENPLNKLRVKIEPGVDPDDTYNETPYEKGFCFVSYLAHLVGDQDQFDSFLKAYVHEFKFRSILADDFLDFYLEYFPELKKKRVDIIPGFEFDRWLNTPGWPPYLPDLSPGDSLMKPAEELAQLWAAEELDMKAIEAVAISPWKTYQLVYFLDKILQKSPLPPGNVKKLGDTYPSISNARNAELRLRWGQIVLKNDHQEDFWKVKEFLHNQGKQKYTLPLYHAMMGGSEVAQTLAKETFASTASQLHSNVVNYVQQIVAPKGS
Chain of leucine aminopeptidase (P28838 whole entry): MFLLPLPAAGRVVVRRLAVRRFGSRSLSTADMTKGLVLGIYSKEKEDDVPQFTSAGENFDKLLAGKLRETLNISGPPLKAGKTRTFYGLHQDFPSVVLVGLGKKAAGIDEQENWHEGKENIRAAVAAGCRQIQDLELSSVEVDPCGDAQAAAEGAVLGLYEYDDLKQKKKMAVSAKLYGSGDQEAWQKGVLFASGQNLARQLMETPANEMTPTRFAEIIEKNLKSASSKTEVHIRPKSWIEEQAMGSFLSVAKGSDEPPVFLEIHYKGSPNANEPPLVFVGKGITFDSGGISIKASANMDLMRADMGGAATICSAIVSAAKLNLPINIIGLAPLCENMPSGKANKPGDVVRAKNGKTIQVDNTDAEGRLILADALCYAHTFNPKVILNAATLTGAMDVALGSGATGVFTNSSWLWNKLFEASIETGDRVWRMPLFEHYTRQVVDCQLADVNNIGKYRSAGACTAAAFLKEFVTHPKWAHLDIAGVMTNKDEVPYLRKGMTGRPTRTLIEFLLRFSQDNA
Chain of pepsin (P0DJD8 63-388): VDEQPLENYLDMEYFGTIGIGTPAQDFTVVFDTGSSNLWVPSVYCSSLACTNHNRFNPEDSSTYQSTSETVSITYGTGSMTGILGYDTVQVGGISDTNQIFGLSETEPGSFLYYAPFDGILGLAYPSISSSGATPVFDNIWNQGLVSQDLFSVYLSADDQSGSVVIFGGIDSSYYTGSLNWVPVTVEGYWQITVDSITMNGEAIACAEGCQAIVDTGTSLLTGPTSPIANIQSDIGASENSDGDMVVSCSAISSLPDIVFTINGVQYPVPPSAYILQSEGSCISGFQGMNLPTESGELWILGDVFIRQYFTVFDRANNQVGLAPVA

In the case of `CC(C)[C@H](NC(=O)[C@H](CCCNC(=N)N)NC(=O)N[C@@H](Cc1ccccc1)C(=O)O)C(=O)N[C@H](C=O)CCCNC(=N)N` [antipain] ({Phe-CO}-Arg-Val-Arg-aldehyde), the inhibition of papain result on papain is “inhibit”.
For `CC(C)CC(=O)N[C@H](C(=O)N[C@H](C(=O)N[C@@H](CC(C)C)[C@@H](O)CC(=O)N[C@@H](C)C(=O)N[C@@H](CC(C)C)[C@@H](O)CC(=O)O)C(C)C)C(C)C` [pepstatin] (Isovaleryl-VV[Sta]A[Sta]-OH), the inhibition of pepsin entry on pepsin was “inhibit”.
With `CC(C)C[C@@H](N)[C@H](O)C(=O)N[C@H](C(=O)N[C@@H](CCC(=O)O)C(=O)N[C@@H](CC(=O)O)C(=O)O)C(C)C` [X--Val--Glu--Asp, (2S,3R)-AHMHA-Val-Glu-Asp], the figures for the IC50 (in assay [1]; on aminopeptidase A (AP-A)) were 0.198 µM and 15.9 µM, respectively. In assay [2], the “IC/50 Gly--His--Lys--AP: amount of the peptide to inhibit the intact activity of the target enzyme by 50%” value worked out at 100 µg/mL. Also, the “IC/50 Gly--Pro--Leu--AP: amount of the peptide to inhibit the intact activity of the target enzyme by 50%” value in [3] is 15 µg/mL.
As for `CC(C)C[C@@H](N)[C@H](O)C(=O)N[C@@H](CCC(=O)O)C(=O)N[C@H](C(=O)N[C@@H](CC(=O)O)C(=O)O)C(C)C` [X--Glu--Val--Asp, (2S,3R)-AHMHA-Glu-Val-Asp], the IC50 in assay [1] is 79.3 µM; at aminopeptidase A (AP-A), 3.96 µM. For the same compound, in assay [2], the “IC/50 Gly--His--Lys--AP: amount of the peptide to inhibit the intact activity of the target enzyme by 50%” value came out at 2.0 µg/mL. Also, the “IC/50 Gly--Pro--Leu--AP: amount of the peptide to inhibit the intact activity of the target enzyme by 50%” value in [3] turned out to be 6 µg/mL.
In the case of `CC(=O)N[C@@H](CC(C)C)C(=O)N[C@@H](CC(C)C)C(=O)N[C@H](C=O)CCCNC(=N)N` [leupeptin], the inhibition of trypsin result on trypsin is reported as “inhibit”.
Take `CC(C)C[C@H](NC(=O)[C@@H](O)[C@H](N)Cc1ccccc1)C(=O)O` [Bestatin, [(2S,3R)-3-amino-2-hydroxy-4-phenylbutanoyl]-L-leucine]: the “inhibition of leucine aminopeptidase” value on leucine aminopeptidase is “inhibits”. Moreover, the “inhibition of aminopeptidase B” value on aminopeptidase B is recorded as “inhibits”. Besides, the “inhibition of aminopeptidase A” value at aminopeptidase A is reported as “does not have any inhibitory effect”.
